The text below walks through data of US9458141B2, “Low molecular weight thyroid stimulating hormone receptor (TSHR) agonists” (The United States of America, as represented by the …, priority 2008, dated 2016).

Read-outs that look alike come from different tables or passages of the source.

This assay addresses T1, human TSHR (Homo sapiens, UniProt P16473).
T1 construct: expressed in transfected cells
Put plainly: Homogeneous Time Resolved Fluorescence (HTRF) cAMP assay, TSHR cell line. Type of assay: cell-based. Conditions: for AC50: HTRF cAMP, TSHR cell line, 30 minute incubation; for Maximum Activity compared to TSH: 100% activity = response of 30 mU/ml TSH, 0% = DMSO control, in %. A general note: Time-resolved FRET reads energy transfer from a long-lived donor to a nearby acceptor; call rule not given here.

T1 sequence (P16473 21-764): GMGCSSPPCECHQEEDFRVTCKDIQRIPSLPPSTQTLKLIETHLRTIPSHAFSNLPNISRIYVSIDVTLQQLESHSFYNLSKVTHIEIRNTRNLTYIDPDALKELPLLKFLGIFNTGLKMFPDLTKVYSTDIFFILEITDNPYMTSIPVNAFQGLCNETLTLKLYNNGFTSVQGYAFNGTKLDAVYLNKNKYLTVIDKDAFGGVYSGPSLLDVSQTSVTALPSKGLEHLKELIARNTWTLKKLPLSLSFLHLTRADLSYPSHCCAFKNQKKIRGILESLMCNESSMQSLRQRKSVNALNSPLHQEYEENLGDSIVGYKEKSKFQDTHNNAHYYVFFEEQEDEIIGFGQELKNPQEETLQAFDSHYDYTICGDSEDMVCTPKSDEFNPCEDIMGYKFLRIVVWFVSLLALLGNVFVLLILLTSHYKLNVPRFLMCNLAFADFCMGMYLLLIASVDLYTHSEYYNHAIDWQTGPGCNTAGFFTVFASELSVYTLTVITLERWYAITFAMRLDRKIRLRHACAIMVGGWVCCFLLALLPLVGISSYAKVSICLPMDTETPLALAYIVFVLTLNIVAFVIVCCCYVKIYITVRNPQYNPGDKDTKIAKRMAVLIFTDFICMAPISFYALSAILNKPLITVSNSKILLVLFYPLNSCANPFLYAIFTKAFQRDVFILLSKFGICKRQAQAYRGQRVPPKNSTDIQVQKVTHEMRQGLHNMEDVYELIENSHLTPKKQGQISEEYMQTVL

As for `O=C(c1ccccc1O)N(Cc1cccs1)Cc1cccs1` [Structure 277], the AC50 (in general, the midpoint of the concentration-response curve, whichever way the signal moves) was “inactive”. On to `COc1ccc(C2Nc3ccccc3C(=O)N2Cc2ccccc2)cc1COc1cccc(Cl)c1` (stereo not drawn) [Structure 278], for which the AC50 entry was “inactive”. On to `COc1ccc(C2Nc3ccccc3C(=O)N2Cc2ccccc2OC)cc1COc1ccc(NC(C)=O)cc1` (stereo not drawn) [Structure 279], for which the “Maximum Activity compared to TSH” value is given as 20.50. In addition, the AC50 (read-out: AC50) was 4.47 µM.

`COc1ccc(C2Nc3ccccc3C(=O)N2Cc2ccccc2C)cc1COc1ccc(NC(C)=O)cc1` (stereo not drawn) [Structure 280]: where the note is “read-out: AC50”, the AC50 was 17.8 µM. The Emax (read-out: Maximum Activity compared to TSH, 100% activity = response of 30 mU/ml TSH, 0% = DMSO control) came out at 24%. In the case of `COc1ccc(C2Nc3ccccc3C(=O)N2Cc2ccccc2C)cc1COc1ccc(NC(C)=O)cc1` (stereo not drawn) [Structure 281], the “Maximum Activity compared to TSH” value is reported as 22.00. Moreover, where the note is “read-out: AC50”, the AC50 came out at 5.62 µM. `COc1ccc(C2Nc3ccccc3C(=O)N2Cc2ccco2)cc1COc1ccc(N)cc1` (stereo not drawn) [Structure 282]: the AC50 result is “inactive”. Still for that read-out and setting: as for `COc1ccc(C2Nc3ccccc3C(=O)N2Cc2ccco2)cc1COc1c(C)cccc1C` (stereo not drawn) [Structure 284], the entry is “inactive”; as for `COc1ccc(CNCc2ccccc2)cc1COc1ccc(NC(C)=O)cc1` [Structure 285], “inactive”. Consider `O=C(c1ccccc1O)N(Cc1ccccc1)Cc1cccs1` [Structure 287], for which the “Maximum Activity compared to TSH” value is 30.00. In addition, where the note is “read-out: AC50”, the AC50 was found to be 22.4 µM. `COc1ccc(C2Nc3ccccc3C(=O)N2Cc2cccc3ccccc23)cc1COc1ccc(NC(C)=O)cc1` (stereo not drawn) [Structure 288]: the “Maximum Activity compared to TSH” value is 20.50. Besides, for the setting “read-out: AC50”, the AC50 is 2.24 µM. For the molecule `COc1ccc(C2Nc3ccccc3C(=O)N2Cc2ccco2)cc1COc1ccc([N+](=O)[O-])cc1` (stereo not drawn) [Structure 289], the AC50 entry was “inactive”.

Consider `COc1ccc(C2Nc3ccccc3C(=O)N2Cc2ccco2)cc1COc1ccc([N+](=O)[O-])cc1` (stereo not drawn) [Structure 290], for which the AC50 result was “inactive”.

For the molecule `COc1ccc(CN(Cc2ccccc2)C(=O)c2ccccc2O)cc1` [Structure 291], the “Maximum Activity compared to TSH” value is given as 38.00. Further, the AC50 (read-out: AC50) turned out to be 35.5 µM. Take `COc1ccc(-c2nc3ccc(NC(=O)CO)cc3c(=O)n2Cc2cccc(Cl)c2)cc1COc1ccc(NC(C)=O)cc1` [Structure 292]: the AC50 entry was “inactive”. With `COc1ccc(CN2C(=O)N(c3ccccc3)C(=O)C2c2ccccc2)cc1COc1ccc(NC(C)=O)cc1` (stereo not drawn) [Structure 293], the AC50 result is “inactive”.
